# Columns and labels:
# [1] = tested on: Escherichia coli; assay: Effect on the intestinal bacterial colonies: Escherichia coli in feces; type: in vivo; conditions: mice, oral 500 mg/kg/day for two consecutive days, feces one day after administration
# Protocol: (§1) Each of the cephalosporin derivatives of the invention prepared in Examples 1 to 10 was orally administered to mice (one group consisting of five female ICR mice of 6-week-old) for two consecutive days at a dose of 500 mg/kg/day.
# (§2) Before and one day after the administration, feces of each mouse were collected and diluted with an anaerobic diluent (phosphoric buffer solution) of 100 times volume and the diluted feces were ground. 0.1 ml of the diluted and ground feces was smeared on each culture medium shown in Table 1 and cultured aerobically or anaerobically (according to the anaerobic glove box method) under each condition shown in Table 1 and the number of each bacterium shown in Table 1 was counted.
# DHL agar aerobic, 37° C.,
# [2] = tested on: Lactobacillus bifidus; assay: Effect on the intestinal bacterial colonies: Lactobacillus bifidus in feces; type: in vivo; conditions: mice, oral 500 mg/kg/day for two consecutive days, feces one day after administration
# Protocol: as §1, §2
# BS agar anaerobic, 37° C.,
# [3] = tested on: Streptococcus spp.; assay: Effect on the intestinal bacterial colonies: Streptococcus spp. in feces; type: in vivo; conditions: mice, oral 500 mg/kg/day for two consecutive days, feces one day after administration
# Protocol: as §1, §2
# TATAC agar aerobic, 37° C.,
# [4] = tested on: Escherichia coli IFO 12734; assay: Antibacterial activity (MIC, agar plate) against E. coli; type: cell-based; conditions: Escherichia coli IFO 12734, Mueller-Hinton agar, 37° C., 18 to 24 hours; unit assumed
# Protocol: (§3) Antibacterial activity of each of the cephalosporin derivatives of the invention prepared in Examples 1 to 10 was examined against the following two bacteria according to the standard method of Japan Society of Chemitherapy: Escherichia coli IFO 12734 and Staphylococcus aureus IAM 1011.
# (§4) Each bacterial strain was inoculated into the Mueller-Hinton's culture medium and cultured at 37° C. for 18 to 48 hours. The cultured medium was diluted so as to contain 1×10^6 cells of the bacteria per one ml, and the obtained medium was used as the bacterial specimen.
# (§5) Agar plates were prepared by adding one part by weight of each solution of the cephalosporin derivative of the invention at a predetermined concentration to nine parts by weight of Mueller-Hinton's culture medium.
# (§6) A loopful amount of the bacterial specimen prepared above was smeared to make a streak of about 2 cm on each agar plate prepared above and cultured at 37° C. for 18 to 24 hours.
# (§7) The minimum concentration for completely inhibiting proliferation of the bacteria (referred to as MIC) was determined.
# [5] = tested on: Staphylococcus aureus IAM 1011; assay: Activation by rat liver homogenate (S-9 mix), proliferation-inhibiting circle, penicillin cup method; type: cell-based; conditions: incubated with rat liver S-9 mix, 37° C. 20 min; circle diameter relative to the starting compound
# Protocol: As an activating enzyme of metabolism, a rat liver homogenate (S-9, manufactured by Oriental Yeast Company, Japan) was used in the following composition per 1 ml (hereinafter referred to as S-9 mix). 0.1 ml of the solution of each of the cephalosporin derivatives of the invention prepared in Examples 1 to 10 at a concentration of 100 μg/ml was mixed with 0.9 ml of S-9 mix or 0.9 ml of 0.1 M phosphoric buffer solution (as a control) and the obtained mixture was incubated at 37° C. for 20 min. with shaking. Staphylococcus aureus IAM 1011 was inoculated into a Mueller-Hinton's culture medium and cultured at 37° C. for 18 hours. The culture medium was adjusted to a cell concentration of 1×10^8 per 1 ml and mixed with 50 times by volume of Mueller-Hinton's agar culture medium to obtain an agar plate. A penicillin cup of 8 mm in diameter was placed on the agar plate prepared above, and into the cup 0.1 ml of the mixture containing the cephalosporin derivative prepared above was introduced and allowed to stand at 4° C. for 2 hours, and then cultured at 37° C. for 18 hours to measure the diameter of a circle in which the proliferation of bacteria was inhibited (proliferation-inhibiting circle). In Table 4, the proliferation-inhibiting index is shown in the ratio (%) of the diameter of the proliferation-inhibiting circle obtained by using each of the cephalosporin derivatives of the invention to that obtained by using each of the starting compound in preparing each of the cephalosporin derivatives of the invention.
# [6] = tested on: Pseudomonas aeruginosa; assay: Effect on the intestinal bacterial colonies: Pseudomonas aeruginosa in feces; type: in vivo; conditions: mice, oral 500 mg/kg/day for two consecutive days, feces one day after administration
# Protocol: as §1, §2
# NAC agar aerobic, 37° C.,
# [7] = tested on: Bacteroides; assay: Effect on the intestinal bacterial colonies: Bacteroides in feces; type: in vivo; conditions: mice, oral 500 mg/kg/day for two consecutive days, feces one day after administration
# Protocol: as §1, §2
# Bacteroides NBGT agar anaerobic, 37° C.,
# [8] = tested on: Lactobacillus acidophilus; assay: Effect on the intestinal bacterial colonies: Lactobacillus acidophilus in feces; type: in vivo; conditions: mice, oral 500 mg/kg/day for two consecutive days, feces one day after administration
# Protocol: as §1, §2
# Lactobacillus acidophilus
# LBS agar anaerobic, 37° C.,
# [9] = tested on: Staphylococcus aureus IAM 1011; assay: Antibacterial activity (MIC, agar plate) against Staph. aureus; type: cell-based; conditions: Staphylococcus aureus IAM 1011, Mueller-Hinton agar, 37° C., 18 to 24 hours; unit assumed
# Protocol: as §3, §4, §5, §6, §7
# [10] = tested on: ICR-JCL mouse; conditions: conventional cephalosporin antibiotic, route not stated; cited from earlier work
MIC E. coli [4] [µg/mL],MIC Staph. aureus [9] [µg/mL],SMILES,"Logarithmic value of the number of bacterial cells per one g of feces, E. coli [1]","Logarithmic value of the number of bacterial cells per one g of feces, L. bifidus [2]","Logarithmic value of the number of bacterial cells per one g of feces, Strept. spp. [3]",Proliferation-inhibiting index (%) After adding S-9 mix [5],"Logarithmic value of the number of bacterial cells per one g of feces, Ps. aeruginosa [6]","Logarithmic value of the number of bacterial cells per one g of feces, Bacteroides [7]","Logarithmic value of the number of bacterial cells per one g of feces, L. acidophilus [8]",LD50 [10]
≥ 100,≥ 12.5,"COC(=O)c1ccccc1NC(=O)C1=C(COC(C)=O)CSC2C(NC(=O)Cc3cccs3)C(=O)N12 (stereo not shown) [Example 10, N-(2-carbomethoxyphenyl)-7-(thienyl-2-acetamido)cephalosporanic acid amide]",6.5,8.2,6.4,+ (1-33),< 3.0,8.0,9.0,–
–,–,CC(=O)OCC1=C(C(=O)O)N2C(=O)[C@@H](NC(=O)Cc3cccs3)[C@H]2SC1 [cephalotin sodium],–,–,–,–,–,–,–,about 5 g/kg
